Two compounds from EPA's ToxValDB 9.5 can be followed below.

One data set relates to Folsomia candida. Particulars: chronic/long-term; duration: 28 days; mortality.
For another data set, the system named is Gallus gallus. Particulars: subchronic; duration: 36 days; oral; diet; M; Chicken; no effects.
The test system of another data set is Hypoaspis aculeifer. To be noted: chronic/long-term; duration: 14 days; mortality.
The test system of another data set is Meleagris sp. To be noted: subchronic; duration: 42 days; oral; feed; F; no effects.
Another data set deals with Oncorhynchus mykiss. Particulars: for NOEC: chronic/long-term.
The subject of a further data set is Pontoscolex corethrurus. Particulars: chronic/long-term; growth.
The next data set deals with Rattus norvegicus. To be noted: oral; for NOAEL: chronic.
The next data set concerns Leuciscus idus. Particulars: chronic/long-term; duration: 66 days; mortality.
In the next data set the test system is Pimephales promelas. To be noted: chronic/long-term; duration: 36 days; mortality.

Each structure is given as a SMILES string. Some results are limits rather than exact numbers.

By LC50 is commonly meant the concentration lethal to half of the exposed cells or organisms. Higher therefore signals a less lethal substance. In general, NOAEL refers to the highest dose or exposure tested at which no adverse effect was seen. On to `O=C(O)c1ccccc1` [Benzoic acid], for which the NOEC in the data set with Folsomia candida came to 143 mg/kg; with Hypoaspis aculeifer, 1000 mg/kg; in the data set with Pontoscolex corethrurus, 384 mg/kg. For the same compound, the LEL in the data set with Gallus gallus was found to be 1500 mg/kg-day; in the data set with Meleagris sp., 1500 mg/kg; in the data set on Sus scrofa (repeat dose other, F, Large White x Landrace, clinical chemistry), 20000 mg/kg-day; in the data set with Sus scrofa (repeat dose other, oral, diet, Not specified, histopathology: nonneoplastic), 10000 mg/kg-day; in the data set with Sus scrofa (subchronic, duration: 42 days, oral, diet, M/F, Not specified, no effects), 5000 mg/kg-day; with Sus scrofa (subchronic, duration: 84 days, oral, diet, Not specified, organ weight), 20000 mg/kg-day. In the data set with Oncorhynchus mykiss (acute, duration: 96 hours, mortality), the LC50 is greater than 9 µg/mL. Further, the LD50 in the data set with Rattus norvegicus (acute, mortality) is greater than 1700 mg/kg-day. Also, the NOAEL in the data set on Rattus norvegicus (duration: 2 years, diet, other) is 500 mg/kg-day; with Rattus norvegicus (duration: 16 weeks, histopathology: nonneoplastic), 500 mg/kg-day.
As to `CNC(=O)/C(=N/OC)c1ccccc1COc1cc(C)ccc1C` [Dimoxystrobin], the NOEC in the data set on Leuciscus idus stood at 15 µg/L; in the data set with Oncorhynchus mykiss (duration: 28 days, body weight) it was 10 µg/L; with Oncorhynchus mykiss (duration: 97 days, biomass) it was 1 µg/L; with Pimephales promelas, 16 µg/L.
